In patent US9353051B2, “Antiviral drugs for treatment or prevention of dengue infection” (Siga Technologies Inc., priority 2007, dated 2016):

System: Dengue-2 (Strain New Guinea C)
Test: viral yield assay against Dengue-2 in Vero cells
Type: cell-based
Details: Dengue virus, Vero, read-out: EC50 Yield Den-2
Experimental: Compounds that were active in the primary screen were also tested for activity in viral yield assays. […] Vero cells in 12-well plates were infected with dengue-2 virus at a multiplicity of infection (MOI) of 0.1, treated with compound (or DMSO as a control), incubated at 37° C., harvested 48 hours post infection and titered on Vero cells as described above. The EC50 was calculated through ExcelFit. Those compounds with activity below 1 μM are indicated with “A”, those with activity between 1 and 10 μM are indicated with “B”, those with activity between 10 and 25 μM with “C”, and those with activity above 25 μM are indicated with “D”.

Structure (SMILES) | EC50 [µM]
CCN(CC)S(=O)(=O)c1ccc(OC)c(NC(=O)Cn2nnc3ccccc3c2=O)c1 [Compound 20, N-(5-Diethylsulfamoyl-2-methoxy-phenyl)-2-(4-oxo-4H-benzo[d][1,2,3]triazin-3-yl)-acetamide] | 1.3

Same assay, conditions: Dengue virus, Vero, read-out: EC90 Yield Den-2

Structure (SMILES) | EC90 [µM]
CCN(CC)S(=O)(=O)c1ccc(OC)c(NC(=O)Cn2nnc3ccccc3c2=O)c1 [Compound 20, N-(5-Diethylsulfamoyl-2-methoxy-phenyl)-2-(4-oxo-4H-benzo[d][1,2,3]triazin-3-yl)-acetamide] | 20

Same assay, conditions: Dengue virus; Vero cells, MOI 0.1, harvested 48 hours post infection; read-out: Activity (anti-dengue 2 viral activity, EC50)

Structure (SMILES) | EC50 [µM]
CN(Cc1nc2ccccc2c(=O)[nH]1)C(=O)c1ccc(S(=O)(=O)N(C)C)cc1 [Compound 112, 4-Dimethylsulfamoyl-N-methyl-N-(4-oxo-3,4-dihydro-quinazolin-2-ylmethyl)-benzamide] | > 25
CCN(CC)S(=O)(=O)c1ccc(NC(=O)Cn2cnc3cc(NC)c([N+](=O)[O-])cc3c2=O)cc1 [Compound 60, N-(4-Diethylsulfamoyl-phenyl)-2-(7-methylamino-6-nitro-4-oxo-4H-quinazolin-3-yl)-acetamide] | > 25
CCN(CC)S(=O)(=O)c1ccc(NC(=O)CNC(=O)c2cc(C)cc(C)c2)cc1 [Compound 63, N-[(4-Diethylsulfamoyl-phenylcarbamoyl)-methyl]-3,5-dimethyl-benzamide] | > 25
COc1ccc(S(=O)(=O)N(C)C)cc1NC(=O)Cn1cnc2cc([N+](=O)[O-])ccc2c1=O [Compound 126, N-(5-Dimethylsulfamoyl-2-methoxy-phenyl)-2-(7-nitro-4-oxo-4H-quinazolin-3-yl)-acetamide] | > 25
CCN(CC)S(=O)(=O)c1ccc(NC(=O)Cn2cnc3cc(OC)c(OC)cc3c2=O)cc1 [Compound 58, N-(4-Diethylsulfamoyl-phenyl)-2-(6,7-dimethoxy-4-oxo-4H-quinazolin-3-yl)-acetamicle] | > 25
O=C(Cn1cnc2ccccc2c1=O)Nc1ccc(S(=O)(=O)NC2CCS(=O)(=O)C2)cc1 (centres unmarked) [Compound 48, N-[4-(1,1-Dioxo-tetrahydro-1lambda*6*- thiophen-3-ylsulfamoyl)-phenyl]-2-(4-oxo-4H-quinazolin-3-yl)-acetamide] | > 25
CCN(CC)S(=O)(=O)c1cc(NC(=O)Cn2cnc3ccccc3c2=O)ccc1C [Compound 105, N-(3-Diethylsulfamoyl-4-methyl-phenyl)-2-(4-oxo-4H-quinazolin-3-yl)-acetamide] | > 25
O=C(Cn1cnc2cc([N+](=O)[O-])ccc2c1=O)Nc1ccc(S(=O)(=O)N2CCCC2)cc1 [Compound 123, 2-(7-Nitro-4-oxo-4H-quinazolin-3-yl)-N-[4-(pyrrolidine-1-sulfonyl)-phenyl]-acetamide] | > 25
CCN(CC)S(=O)(=O)c1ccc(OC(C)C)c(NC(=O)CCn2nnc3ccccc3c2=O)c1 [Compound 25, N-(5-Diethylsulfamoyl-2-isopropoxy-phenyl)-3-(4-oxo-4H-benzo[d][1,2,3]triazin-3-yl)-propionamide] | 10 to 25
CN(C)S(=O)(=O)c1ccc(NC(=O)Cn2nnc3ccccc3c2=O)cc1 [Compound 85, N-(4-Dimethylsulfamoyl-phenyl)-2-(4-oxo-4H-benzo[d][1,2,3]triazin-3-yl)-acetamide] | > 25
CN(C)S(=O)(=O)c1cccc(NC(=O)Cn2cnc3ccccc3c2=O)c1 [Compound 107, N-(3-Dimethylsulfamoyl-phenyl)-2-(4-oxo-4H-quinazolin-3-yl)-acetamide] | > 25
Cc1cccc2c(=O)n(CC(=O)Nc3ccc(S(=O)(=O)N(C)C)cc3)cnc12 [Compound 62, N-(4-Dimethylsulfamoyl-phenyl)-2-(8-methyl-4-oxo-4H-quinazolin-3-yl)-acetamide] | > 25
CCN(CC)S(=O)(=O)c1ccc(NC(=O)Cn2cnc3sc(C)c(C)c3c2=O)cc1 [Compound 10, N-(4-Diethylsulfamoyl-phenyl)-2-(5,6-dimethyl-4-oxo-4H-thieno[2,3-d]pyrimidin-3-yl)-acetamide] | 1 to 10
CC1CCCN(S(=O)(=O)c2ccc(NC(=O)Cn3cnc4ccccc4c3=O)cc2)C1 (centres unmarked) [Compound 53, N-[4-(3-Methyl-piperidine-1-sulfonyl)-phenyl]-2-(4-oxo-4H-quinazolin-3-yl)-acetamide] | > 25
CCN(CC)S(=O)(=O)c1ccc(C(C)NC(=O)CCn2nnc3ccccc3c2=O)cc1 (centres unmarked) [Compound 68, N-[1-(4-Diethylsulfamoyl-phenyl)-ethyl]-3-(4-oxo-4H-benzo[d][1,2,3]triazin-3-yl)-propionamide] | > 25
CCN(CC(=O)Nc1ccc(S(=O)(=O)N(CC)CC)cc1)Cc1nc2cc(Cl)ccc2c(=O)[nH]1 [Compound 75, 2-[(7-Chloro-4-oxo-3,4-dihydro-quinazolin-2-ylmethyl)-ethyl-amino]-N-(4-diethylsulfamoyl-phenyl)-acetamide] | > 25
COC(=O)CNS(=O)(=O)c1ccc(NC(=O)Cn2cnc3ccccc3c2=O)cc1 [Compound 54, {4-[2-(4-Oxo-4H-quinazolin-3-yl)-acetylamino]-benzene-sulfonylamino}-acetic acid methyl ester] | > 25
O=C(Cn1cnc2ccccc2c1=O)Nc1ccc(S(=O)(=O)NCC(F)(F)F)cc1 [Compound 30, 2-(4-Oxo-4H-quinazolin-3-yl)-N-[4-(2,2,2-trifluoro-ethylsulfamoyl)-phenyl]-acetamide] | 10 to 25
CC(c1ccc(S(N)(=O)=O)cc1)N(C)C(=O)CCc1nc2ccccc2c(=O)[nH]1 (centres unmarked) [Compound 132, N-Methyl-3-(4-oxo-3,4-dihydro-quinazolin-2-yl)-N-[1-(4-sulfamoyl-phenyl)-ethyl]-propionamide] | > 25
CCN(CC)S(=O)(=O)c1ccc(NC(=O)CNC(=O)c2ccc(OC)c(OC)c2)cc1 [Compound 79, N-[(4-Diethylsulfamoyl-phenylcarbamoyl)-methyl]-3,4-dimethoxy-benzamide] | > 25
CC(C)(C)NS(=O)(=O)c1cccc(NC(=O)Cn2cnc3ccccc3c2=O)c1 [Compound 55, N-(3-tert-Butylsulfamoyl-phenyl)-2-(4-oxo-4H-quinazolin-3-yl)-acetamide] | > 25
CNS(=O)(=O)c1ccc(NC(=O)Cn2cnc3ccccc3c2=O)cc1 [Compound 46, N-(4-Methylsulfamoyl-phenyl)-2-(4-oxo-4H-quinazolin-3-yl)-acetamide] | > 25
CCN(CC)S(=O)(=O)c1ccc(NC(=O)Cn2c(=O)n(CC)c(=O)c3ccccc32)cc1 [Compound 78, N-(4-Diethylsulfamoyl-phenyl)-2-(3-ethyl-2,4-dioxo-3,4-dihydro-2H-quinazolin-1-yl)-acetamide] | > 25
CCN(CC)S(=O)(=O)c1ccc(OC)c(NC(=O)Cn2nnc3ccccc3c2=O)c1 [Compound 20, N-(5-Diethylsulfamoyl-2-methoxy-phenyl)-2-(4-oxo-4H-benzo[d][1,2,3]triazin-3-yl)-acetamide] | 1 to 10
O=C(Cn1nnc2ccccc2c1=O)Nc1ccc(S(=O)(=O)N2CCOCC2)cc1 [Compound 82, N-[4-(Morpholine-4-sulfonyl)-phenyl]-2-(4-oxo-4H-benzo[d][1,2,3]triazin-3-yl)-acetamide] | > 25
O=C(Cn1cnc2ccc(Cl)cc2c1=O)Nc1ccc(S(=O)(=O)N2CCCCCC2)cc1 [Compound 138, N-[4-(Azepane-1-sulfonyl)-phenyl]-2-(6-chloro-4-oxo-4H-quinazolin-3-yl)-acetamide] | > 25
CCn1c(=O)c2ccccc2n(CC(=O)NCCc2ccc(S(N)(=O)=O)cc2)c1=O [Compound 101, 2-(3-Ethyl-2,4-dioxo-3,4-dihydro-2H-quinazolin-1-yl)-N-[2-(4-sulfamoyl-phenyl)-ethyl]-acetamide] | > 25
CCN(CC)S(=O)(=O)c1ccc(NC(=O)CCn2nnc3ccccc3c2=O)cc1 [Compound 77, N-(4-Diethylsulfamoyl-phenyl)-3-(4-oxo-4H-benzo[d][1,2,3]triazin-3-yl)-propionamide] | > 25

Same assay, conditions: Dengue virus; viral yield assay, Vero cells; read-out: EC50 Yield Den-2

Structure (SMILES) | EC50 [µM]
CCN(CC)S(=O)(=O)c1ccc(NC(=O)Cn2cnc3sc(C)c(C)c3c2=O)cc1 [Compound 10, N-(4-Diethylsulfamoyl-phenyl)-2-(5,6-dimethyl-4-oxo-4H-thieno[2,3-d]pyrimidin-3-yl)-acetamide] | 1.25

Same assay, conditions: Dengue virus; viral yield assay, Vero cells; read-out: EC90 Yield Den-2

Structure (SMILES) | EC90 [µM]
CCN(CC)S(=O)(=O)c1ccc(NC(=O)Cn2cnc3sc(C)c(C)c3c2=O)cc1 [Compound 10, N-(4-Diethylsulfamoyl-phenyl)-2-(5,6-dimethyl-4-oxo-4H-thieno[2,3-d]pyrimidin-3-yl)-acetamide] | > 50
